Results from US8673914B2, “Use of phosphodiesterase inhibitors for treating multidrug resistance” (St. John's University, priority 2011, dated 2014).
Like-named read-outs stand apart in the source and are kept apart here. Marks after values point to notes of the source that are not given here.

Experiments:
HEK293/pcDNA3 = assay: MTT cytotoxicity/reversal assay (Example 2); format: cell-based; conditions: alone
Experimental: (§1) The ABCB1-overexpressing drug resistant cell line KB-V1 (generously provided by Dr. Gottesman, NCI, NIH) was established by a stepwise concentration increase of vinblastine in the culture medium of KB-3-1 cells and subsequently culturing these cells in medium with 1 μg/mL of vinblastine. An ABCC1-overexpressing MDR cell line, KB-CV60, was also derived from KB-3-1 cells and was maintained in medium with 1 μg/mL of cepharanthine and 60 ng/mL of vincristine. Both KB-C2 and KB-CV60 cell lines were kindly provided by Dr. Akiyama (Kagoshima University, Japan). HEK293/pcDNA3.1, ABCG2-482-R5, ABCG2-482-G2, and ABCG2-482-T7 cells were established by selection with 2 mg/mL G418 after transfecting HEK293 with either (1) empty pcDNA3.1 vector or (2) pcDNA3.1 vector containing full length ABCG2 coding either (2a) wild-type arginine (R) or mutant (2b) glycine (G) or (2c) threonine (T) at amino acid position 482, respectively. The wild-type ABCG2-overexpressing drug-resistant cell line MCF-7/Flv1000 was cultured in the medium with 1 μM of flavopiridol. […] Another G482 mutant ABCG2-overexpressing drug resistant cell line, S1-M1-80, was maintained in the medium with 80 μM of mitoxantrone. […] All the cell lines were grown as adherent monolayers in flasks with DMEM (Dulbecco's modified Eagle's medium) culture medium (Hyclone Co.) containing 10% bovine serum at 37° C. in a humidified atmosphere of 5% CO2.
(§2) Cells in 96-well plates were preincubated with or without the reversal agents for 1 h and then different concentrations of chemotherapeutic drugs were added into designated wells. After 68 h of incubation, MTT solution (4 mg/mL) was added to each well, and the plate was further incubated for 4 h, allowing viable cells to change the yellow-colored MTT into dark-blue formazan crystals. Subsequently the medium was discarded, and […] of DMSO was added into each well to dissolve the formazan crystals. The absorbance was determined at 570 nm by an OPSYS MR Microplate Reader from DYNEX Technologies, Inc.

MCF-7/Flv1000 = assay: MTT cytotoxicity/reversal assay (Example 2); format: cell-based; conditions: MCF-7/Flv1000, alone
Experimental: as §1, §2

MCF-7 = assay: MTT cytotoxicity/reversal assay (Example 2); format: cell-based
Experimental: as §1, §2

MCF7/ADVP3000 = assay: MTT cytotoxicity/reversal assay (Example 2); format: cell-based; conditions: alone
Experimental: as §1, §2

S1-M1-80 = assay: MTT cytotoxicity/reversal assay (Example 2); format: cell-based; conditions: alone
Experimental: as §1, §2

S1 = assay: MTT cytotoxicity/reversal assay (Example 2); format: cell-based; conditions: alone
Experimental: as §1, §2

S1/FLV5000 = assay: cells; format: cell-based
Experimental: as §1, §2

HEK/ABCG2-G2 = assay: MTT cytotoxicity/reversal assay (Example 2); conditions: HEK/ABCG2-G2, alone
Experimental: as §1, §2

HEK/ABCG2-R5 = assay: MTT cytotoxicity/reversal assay (Example 2); conditions: HEK/ABCG2-R5, alone
Experimental: as §1, §2

HEK/ABCG2-T7 = assay: MTT cytotoxicity/reversal assay (Example 2); conditions: HEK/ABCG2-T7, alone
Experimental: as §1, §2

HEK293/pcDNA3.1 = assay: MTT cytotoxicity/reversal assay (Example 1); format: cell-based
Experimental: (§3) The KB-C2 and KB-3-1 were kindly provided by Dr. Akiyama (Kagoshima University, Japan). HEK293-pcDNA3.1 and wild-type HEK/ABCG2 transfected cells were established by selection with G418 after transfecting HEK293 with either (1) empty pcDNA3.1 vector or (2) pcDNA3.1 vector containing full length of ABCG2 coding arginine (R) at amino acid position 482, and were then cultured in a medium with 2 mg/ml of G418 (ABCG2-482-R2 cells). Similarly, the HEK/MRP1 (ABCC1) and HEK/ABCB1 cells were generated by transfecting the HEK293 cells with either the MRP1 expression vector or the ABCB1 expression vector. All of the cell lines were grown in Dulbecco's modified Eagle's medium (DMEM) supplemented with 10% bovine serum, 100 units/ml penicillin, and […] streptomycin in a humidified incubator containing 5% CO2 at 37° C.
(§4) The MTT assay was used to assess cytotoxicity. The cultured cells were harvested with trypsin and resuspended in a final concentration of 4×10^3 cells/well for KB-3-1; 7.5×10^3 cells/well for KB-C2; and 8×10^3 for all of the other cell lines used in this study. Cells were seeded evenly in 96-well multiplates. […] After 68 h of incubation, 20 μl of the MTT solution (4 mg/ml) was added to each well, and the plate was further incubated for 4 h at 37° C., allowing viable cells to convert the yellow-colored MTT into dark-blue formazan crystals. Subsequently, the medium was discarded, and 100 μl of DMSO was added into each well to dissolve the formazan crystals, generating purple color. The absorbance was determined at 570 nm by an OPSYS Microplate Reader from DYNEX Technologies, Inc. (Chantilly, Va.). […] The degree of the reversal of multidrug resistance (MDR) was calculated by dividing the IC50 of an anticancer drug, e.g., an antineoplastic or chemotherapeutic drug (agent, compound), in a cell type in the absence of a reversal agent by the IC50 of the anticancer drug in the same cell type in the presence of the reversal agent. The IC50 values were calculated from survival curves using the Bliss method.

HEK/MRP1 (ABCC1) = assay: MTT cytotoxicity/reversal assay (Example 1); format: cell-based; conditions: +10 μM reversal agent
Experimental: The KB-C2 and KB-3-1 were kindly provided by Dr. Akiyama (Kagoshima University, Japan). […] Similarly, the HEK/MRP1 (ABCC1) and HEK/ABCB1 cells were generated by transfecting the HEK293 cells with either the MRP1 expression vector or the ABCB1 expression vector. All of the cell lines were grown in Dulbecco's modified Eagle's medium (DMEM) supplemented with 10% bovine serum, 100 units/ml penicillin, and […] streptomycin in a humidified incubator containing 5% CO2 at 37° C.
as §4

ABCG2-482-R2 (ABCG2) = assay: MTT cytotoxicity/reversal assay (Example 1)
Experimental: as §3, §4

KB-3-1 = assay: MTT cytotoxicity/reversal assay (Example 2); format: cell-based, human; conditions: alone
Experimental: as §1, §2

KB-C2 = assay: MTT cytotoxicity/reversal assay (Example 2); format: cell-based, human; conditions: alone
Experimental: as §1, §2

KB-V1 = assay: MTT cytotoxicity/reversal assay (Example 2); format: cell-based, human; conditions: alone
Experimental: as §1, §2

[1] = MTT cytotoxicity assay (Example 4); format: cell-based; conditions: human; HEK/MRP7; alone; read-out: IC50 of vinblastine;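 on fold-resistance, vinblastine: drug IC50 in HEK/MRP7 divided by IC50 in parental HEK293-pcDNA3.1 cells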
Experimental: (§5) The MRP7 cDNA was generously provided by Dr. Gary Kruh (University of Illinois, Chicago, Ill.) and inserted into the pcDNA3.1 expression vector. […] Individual colonies were selected in medium containing G418 (1 mg/ml) and cultured for further analysis.
(§6) MTT colorimetric assay was performed to analyze the drug sensitivity as previously described (Shi et al. (2007) Cancer Res. 67:11012-20). HEK293-pcDNA3.1 and HEK/MRP7 cells were seeded into 96-well plates in triplicate at 6000 cells/well.
(§7) After drug incubation of 68 h, 20 μl MTT solution (4 mg/ml) was added into each well. […] The Bliss method was used to calculate the IC50 values according to survival curves.

HEK 293-pcDNA-3.1 = assay: MTT cytotoxicity assay (Example 4); format: cell-based
Experimental: as §5, §6, §7

HEK/MRP7 = assay: MTT cytotoxicity assay (Example 4); format: cell-based; conditions: alone;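 on fold-resistance, vinblastine: drug IC50 in HEK/MRP7 divided by IC50 in parental HEK293-pcDNA3.1 cells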
Experimental: as §5, §6, §7

[2] = Homo sapiens, read-out: IC50 of mitoxantrone

With `O=C1c2c(O)ccc(O)c2C(=O)c2c(NCCNCCO)ccc(NCCNCCO)c21` [Mitoxantrone, mitoxantrone] the IC50 (HEK293/pcDNA3; [2]) was 35.6 ± 3 nM, the “fold-resistance, mitoxantrone” value (HEK293/pcDNA3) was “(1.0)^c” and the “fold-resistance, mitoxantrone” value (MCF-7/Flv1000) was “(66.7)”. The IC50 (MCF-7/Flv1000; read-out: IC50 of mitoxantrone) was 511000 ± 16700 nM, the IC50 (MCF-7; Homo sapiens, MCF7, alone, read-out: IC50 of mitoxantrone) was 7660 ± 193 nM and the “fold-resistance, mitoxantrone” value (MCF-7; alone) was “(1.0)^c”. The IC50 (MCF7/ADVP3000; [2]) was 279000 ± 6030 nM, the “fold-resistance, mitoxantrone” value (MCF7/ADVP3000) was “(36.4)” and the IC50 (S1-M1-80; [2]) was 224000 ± 8600 nM. For the same molecule, the “fold-resistance, mitoxantrone” value (S1-M1-80) was “(559.3)”, the “fold-resistance, mitoxantrone” value (S1) was “(1.0)^c” and the IC50 (S1; read-out: IC50 of mitoxantrone) was 380 ± 41.6 nM. The “fold-resistance, mitoxantrone” value (S1/FLV5000) was “(3.0)”, the IC50 (S1/FLV5000; S1/FLV5000, alone, read-out: IC50 of mitoxantrone) was 1120 ± 144 nM and the “fold-resistance, mitoxantrone” value (HEK/ABCG2-G2) was “(31.0)”. For the same molecule, the “fold-resistance, mitoxantrone” value (HEK/ABCG2-R5) was “(12.8)” and the “fold-resistance, mitoxantrone” value (HEK/ABCG2-T7) was “(23.7)”.
In the case of `O=C(Nc1cccc2c(=O)cc(-c3nn[nH]n3)oc12)c1ccc(OCCCCc2ccccc2)cc1` [ONO-1078], the “fold reversal, vincristine” value (HEK293/pcDNA3.1; HEK293/pcDNA3.1 (Table 6), +10 μM reversal agent) is reported as “(1.33)” and the “fold reversal, vincristine” value (HEK/MRP1 (ABCC1)) is reported as “(5.9)”.
With `CCc1c2c(nc3ccc(O)cc13)-c1cc3c(c(=O)n1C2)COC(=O)[C@]3(O)CC` [SN-38, 7-ethyl-10-hydroxy-20(S)-camptothecin] the “fold reversal, SN-38” value (HEK293/pcDNA3.1; HEK293/pcDNA3.1, alone) was “(1.00)”, the IC50 (HEK293/pcDNA3.1; HEK293/pcDNA3.1, alone, read-out: IC50 of SN-38) was 116 ± 15.1 nM and the “fold reversal, SN-38” value (ABCG2-482-R2 (ABCG2); alone) was “(1.00)”. For the same molecule, the IC50 (ABCG2-482-R2 (ABCG2); read-out: IC50 of SN-38, alone) was 3650 ± 547 nM, the “fold-resistance, SN-38” value (HEK293/pcDNA3) was “(1.0)^c” and the IC50 (HEK293/pcDNA3; read-out: IC50 of SN-38) was 5.8 ± 0.2 nM. For the same molecule, the “fold-resistance, SN-38” value (MCF-7/Flv1000) was “(18.7)”, the IC50 (MCF-7/Flv1000; read-out: IC50 of SN-38) was 22800 ± 2000 nM and the “fold-resistance, SN-38” value (MCF-7; alone) was “(1.0)^c”. For the same molecule, the IC50 (MCF-7; alone, read-out: IC50 of SN-38) was 1220 ± 263 nM, the “fold-resistance, SN-38” value (MCF7/ADVP3000) was “(11.3)” and the IC50 (MCF7/ADVP3000; read-out: IC50 of SN-38) was 14300 ± 1620 nM. For the same molecule, the “fold-resistance, SN-38” value (S1-M1-80) was “(14.4)”, the IC50 (S1-M1-80; read-out: IC50 of SN-38) was 3550 ± 1400 nM and the “fold-resistance, SN-38” value (S1) was “(1.0)^c”. The IC50 (S1; read-out: IC50 of SN-38) was 245 ± 17 nM, the “fold-resistance, SN-38” value (S1/FLV5000; S1/FLV5000, alone) was “(1.4)” and the IC50 (S1/FLV5000; S1/FLV5000, alone, read-out: IC50 of SN-38) was 344 ± 87.4 nM. For the same molecule, the “fold-resistance, SN-38” value (HEK/ABCG2-G2) was “(2.3)”, the IC50 (HEK/ABCG2-G2; read-out: IC50 of SN-38) was 204 ± 136 nM and the “fold-resistance, SN-38” value (HEK/ABCG2-R5) was “(22.1)”. The IC50 (HEK/ABCG2-R5; read-out: IC50 of SN-38) was 128 ± 88.2 nM, the “fold-resistance, SN-38” value (HEK/ABCG2-T7) was “(20.2)” and the IC50 (HEK/ABCG2-T7; read-out: IC50 of SN-38) was 117 ± 70.4 nM.
For `CC[C@]1(O)C[C@@H]2CN(CCc3c([nH]c4ccccc34)[C@@](C(=O)OC)(c3cc4c(cc3OC)N(C)[C@H]3[C@@](O)(C(=O)OC)[C@H](OC(C)=O)[C@]5(CC)C=CCN6CC[C@]43[C@@H]65)C2)C1` [Vinblastine, vinblastine], the “fold-resistance, vinblastine” value (KB-3-1) was “(1.0)^c”, the “fold-resistance, vinblastine” value (KB-C2) was “(10.3)” and the “fold-resistance, vinblastine” value (KB-V1) was “(120.1)”. The IC50 at 68 h [1] was 56.3 ± 4.61 nM, the “fold-resistance, vinblastine” value (HEK 293-pcDNA-3.1; HEK 293-pcDNA-3.1, alone) was “(1.0)” and the IC50 (HEK 293-pcDNA-3.1; read-out: IC50 of vinblastine) was 11.2 ± 1.23 nM. The “fold-resistance, vinblastine” value (HEK/MRP7) was “(5.03)”.
